According to patent publication US20260297060A1, “COMPOUNDS FOR THE DEGRADATION OF MUTANT BRAF” (C4 THERAPEUTICS, INC., priority 2023, published 2026):
Where two headings read alike, the source gives them in different places.

Legend:
BRAF V600E = biological target: T1, BRAF V600E (Homo sapiens, UniProt P15056+Q96SW2, V600E); assay: BRAF V600E HiBiT Degradation Assay; assay type: cell-based; settings: for Emax: read-out: HiBiT-Degradation A375.10 BRAF 2 hours Emax
T1 construct: knock-in of the HiBiT tag to the endogenous BRAF V600E locus; host or cells: A375.10 (A375 clonal line, CRISPR HiBiT knock-in at the endogenous BRAF V600E locus)
T1 sequence (P15056 whole entry V600E): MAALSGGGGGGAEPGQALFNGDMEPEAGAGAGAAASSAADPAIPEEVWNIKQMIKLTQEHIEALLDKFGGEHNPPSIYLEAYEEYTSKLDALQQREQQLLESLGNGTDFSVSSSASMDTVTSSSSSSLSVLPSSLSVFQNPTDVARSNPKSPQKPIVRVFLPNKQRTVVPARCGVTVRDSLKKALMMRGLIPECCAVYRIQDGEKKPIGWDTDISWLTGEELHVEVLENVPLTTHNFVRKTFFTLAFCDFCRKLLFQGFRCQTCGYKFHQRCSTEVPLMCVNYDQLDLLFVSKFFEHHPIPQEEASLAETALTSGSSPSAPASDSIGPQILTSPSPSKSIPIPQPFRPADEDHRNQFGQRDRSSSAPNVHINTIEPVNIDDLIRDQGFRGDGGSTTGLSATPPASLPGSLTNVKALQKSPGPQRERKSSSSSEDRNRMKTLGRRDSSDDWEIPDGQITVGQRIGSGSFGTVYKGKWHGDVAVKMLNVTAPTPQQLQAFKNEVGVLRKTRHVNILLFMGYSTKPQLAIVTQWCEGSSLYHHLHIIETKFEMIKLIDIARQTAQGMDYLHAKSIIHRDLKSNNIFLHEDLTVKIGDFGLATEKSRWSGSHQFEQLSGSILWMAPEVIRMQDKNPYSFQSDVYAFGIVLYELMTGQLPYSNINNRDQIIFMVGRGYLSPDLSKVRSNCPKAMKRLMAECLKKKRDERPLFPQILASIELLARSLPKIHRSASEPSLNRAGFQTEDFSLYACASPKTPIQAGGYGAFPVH
T1 sequence (Q96SW2 whole entry): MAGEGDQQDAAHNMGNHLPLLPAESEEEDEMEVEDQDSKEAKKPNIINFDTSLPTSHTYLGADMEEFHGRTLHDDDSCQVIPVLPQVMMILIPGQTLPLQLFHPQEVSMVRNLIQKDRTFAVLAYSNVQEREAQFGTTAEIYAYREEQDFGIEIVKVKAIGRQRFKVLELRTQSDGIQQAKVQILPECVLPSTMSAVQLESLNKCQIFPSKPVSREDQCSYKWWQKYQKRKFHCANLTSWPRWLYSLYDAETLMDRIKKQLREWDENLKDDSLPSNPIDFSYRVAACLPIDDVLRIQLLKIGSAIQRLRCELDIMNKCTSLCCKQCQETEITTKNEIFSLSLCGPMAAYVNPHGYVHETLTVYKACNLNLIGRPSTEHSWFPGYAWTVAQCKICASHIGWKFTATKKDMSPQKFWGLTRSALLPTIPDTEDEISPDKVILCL
T1 sequence (Q16531 whole entry partner): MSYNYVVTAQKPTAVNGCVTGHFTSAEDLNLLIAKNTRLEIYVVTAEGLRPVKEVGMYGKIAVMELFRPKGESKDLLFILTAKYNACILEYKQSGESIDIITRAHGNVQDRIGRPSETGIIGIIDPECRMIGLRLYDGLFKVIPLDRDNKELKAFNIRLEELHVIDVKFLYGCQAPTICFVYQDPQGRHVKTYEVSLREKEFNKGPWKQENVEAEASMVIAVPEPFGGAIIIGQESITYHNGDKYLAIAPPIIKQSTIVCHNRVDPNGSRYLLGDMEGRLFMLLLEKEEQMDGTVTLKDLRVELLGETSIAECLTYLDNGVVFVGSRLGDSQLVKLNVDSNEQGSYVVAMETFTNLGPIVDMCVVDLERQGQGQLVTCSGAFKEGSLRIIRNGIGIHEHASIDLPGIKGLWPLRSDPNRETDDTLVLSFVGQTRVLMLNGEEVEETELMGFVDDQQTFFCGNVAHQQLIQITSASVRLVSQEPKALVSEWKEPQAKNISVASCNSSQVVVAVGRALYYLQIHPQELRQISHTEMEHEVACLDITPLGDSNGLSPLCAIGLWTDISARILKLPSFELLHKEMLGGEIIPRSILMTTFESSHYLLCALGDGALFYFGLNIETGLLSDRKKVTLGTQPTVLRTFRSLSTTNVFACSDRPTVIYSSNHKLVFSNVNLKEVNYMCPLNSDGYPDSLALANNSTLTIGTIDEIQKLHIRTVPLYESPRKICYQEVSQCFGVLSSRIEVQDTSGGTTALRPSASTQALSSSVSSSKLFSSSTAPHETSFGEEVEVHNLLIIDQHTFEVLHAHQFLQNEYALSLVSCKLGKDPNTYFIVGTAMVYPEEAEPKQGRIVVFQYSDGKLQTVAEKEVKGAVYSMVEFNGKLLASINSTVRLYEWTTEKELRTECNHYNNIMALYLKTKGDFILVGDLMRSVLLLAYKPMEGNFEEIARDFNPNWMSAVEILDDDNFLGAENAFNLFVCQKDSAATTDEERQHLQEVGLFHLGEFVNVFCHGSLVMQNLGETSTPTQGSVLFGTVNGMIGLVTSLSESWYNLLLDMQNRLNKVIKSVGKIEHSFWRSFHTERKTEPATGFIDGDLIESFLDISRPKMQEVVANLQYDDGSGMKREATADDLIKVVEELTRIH
Procedure: Compounds of this invention were tested for degradation of mutant BRAF V600E using the HiBiT assay, a luminescence-based assay for quantification of cellular protein levels using the Nano-Glo® HiBiT Lytic Detection System (Catalog No. N3050, Promega, Madison, WI USA). This assay utilizes the HiBiT tag on a protein of interest, which creates a luminescent signal in the presence of a complementing peptide and its substrate, the quantification of which is proportional to the amount of HiBiT-tagged protein in the cell.
The cell line A375, which is homozygous for the BRAF V600E mutation, was purchased from ATCC (Catalog No. CRL-1619, Manassas, VA, USA). A375 cells were engineered to express HiBiT tagged BRAF V600E by CRISPR knock-in of the HiBiT tag to the endogenous BRAF V600E locus, followed by selection of a clonal population containing the appropriate knock-in (referred to here as cell line A375.10). A375.10 cells were maintained at 37° C. in an atmosphere of 5% CO2 in Dulbecco's modified Eagle Medium (DMEM) with high glucose (Catalog No. 11965092), supplemented with 10% fetal bovine serum (FBS; Catalog No. 10437036), and 10 mM HEPES (Catalog No. 15630130), all obtained from Thermofisher Scientific (Waltham, MA, USA). Cell culture flasks and 384-well microplates were acquired from VWR (Radnor, PA, USA).
Test compounds were prepared by dissolving neat compounds in DMSO (Catalog No. D8418, Sigma-Aldrich, Inc., St. Louis, MO, USA) to generate 10 mM stock solutions, which were serially diluted (half log) in DMSO to generate an 11-point dose series (1000× final treatment concentration) in a 384-Well Low Dead Volume Microplate (Catalog No. LP-0200, Labcyte, San Jose, CA, USA). Using the Echo 550 Acoustic Liquid Handler (Labcyte), 30 nL of serially diluted compound solutions were dispensed in duplicate to 384-well TC-treated microplates (Catalog No. 3571, Corning, Glendale, CA, USA) and 30 nL of DMSO was dispensed to control wells. A375.10 cells resuspended in growth media without phenol red (Catalog No. 21063-029, Thermofisher Scientific) were then added to 384-well plates containing the 11-point dose series of compounds in duplicate (maximum 10 μM concentration for final treatment) at a density of 12,000 cells/well in 30 μl. Plates were then spun briefly, and cells were incubated with compound at 37° C. for 2 hours, 6 hours, or 24 hours.
Following the appropriate treatment time, Nano-Glo® HiBiT Lytic Assay reagents were added to the cells per the manufacturer's instructions by adding 30 μl of reagent per well, and the luminescence signal was acquired by plate reader. Cells treated with DMSO only (no test compound treatment) were used as the negative control (N). Media only (no cells added) with Nano-Glo reagent addition was used as the background or positive control (P). The percent response of compound treated samples were calculated by subtracting out the background signal (P) and normalizing to the DMSO control (N) as follows.
% Response=100×(Treated Signal−Average (P))/(Average (N)−Average (P)).
Data were analyzed with a 4-parameter logistic fit to generate sigmoidal dose-response curves. The DC50 is the concentration of compound at which 50% of the cellular BRAF V600E has been degraded. The Emax, or maximum effect of each compound, represents the amount of residual protein remaining in the cell following compound treatment. The IP, or inflection point of the dose-response curve, is the concentration of compound at which 50% of the observed degradation response is achieved.
The experiment was conducted at least once for each compound. If the experiment was conducted multiple times, the data shown in the table is the average of the two or more experiments.

A375-NRAS^Q61K cells = assay: CTGlo Cell Viability Assay, A375-NRAS^Q61K (A375.11) cells, 96 hours; assay type: cell-based, human; settings: A375.11 (A375-NRAS^Q61K) cells; for Emax / CTGlo A375.11 96 hours Emax: lowest % viability achieved
Procedure: Compounds of this invention were tested for their effect on the viability of A375-NRAS^Q61K cells by quantification of ATP using the CellTiter-Glo® 2.0 Cell Viability Assay (Catalog No. G9243, Promega, Madison, WI, USA). This assay produces a luminescent signal in the presence of ATP, which is indicative of metabolically active cells, making the luminescence readout proportional to the number of viable cells.
A375-NRAS^Q61K cells (harboring BRAF homozygous V600E mutation and NRAS homozygous Q61K mutation) were purchased from ATCC (Catalog No. CRL-1619IG-2, Manassas, VA, USA). A375-NRAS^Q61K cells (also referred to here as A375.11) were maintained at 37° C. in an atmosphere of 5% CO2 in Dulbecco's modified Eagle Medium (DMEM) with high glucose (Catalog No. 11965092), supplemented with 10% fetal bovine serum (FBS; Catalog No. 10437036), and 10 mM HEPES (Catalog No. 15630130), all obtained from Thermofisher Scientific (Waltham, MA, USA). Cell culture flasks and 384-well microplates were acquired from VWR (Radnor, PA, USA).
Test compounds were prepared by dissolving neat compounds in DMSO (Catalog No. D8418, Sigma-Aldrich, Inc., St. Louis, MO, USA) to generate 10 mM stock solutions, which were serially diluted (half log) in DMSO to generate an 11-point dose series (1000× final treatment concentration) in a 384-Well Low Dead Volume Microplate (Catalog No. LP-0200, Labcyte, San Jose, CA, USA). Using the Echo 550 Acoustic Liquid Handler (Labcyte), 50 nL of serially diluted compound solutions were dispensed in duplicate to 384-well TC-treated microplates (Catalog No. 3571, Corning, Glendale, CA, USA) and 50 nL of DMSO was dispensed to control wells. A375-NRAS^Q61K cells were resuspended in growth media and added to 384-well plates containing a […] of compounds in duplicate (maximum 10 μM concentration for final treatment) at a density of 250 cells/well in 50 μl. Cells were also plated to a 384-well plate with no compound treatment, to which CellTiter-Glo® reagent was added and luminescence was read right after plating to act as a baseline signal at time of plating (To). Plates treated with compound were then spun briefly, and cells were incubated with compound at 37° C. for 96 hours.
After 96 hours compound treatment, CellTiter-Glo® reagent was added to the cells at 25 μl per well and luminescence was read out on the PHERAstar plate reader (BMG Labtech, Ortenberg, Germany). Cells treated with DMSO only (no test compound treatment) were used as the negative control (N). DMSO treated cells with no CellTiter-Glo® reagent added were used as the background or positive control (P). Viability was determined by subtracting out the average background signal (P) and normalized to the average untreated signal (N) set at 100%.
Data were analyzed with a 4-parameter logistic fit to generate sigmoidal dose-response curves. The half-maximal inhibition of cell growth (GI50) is the concentration at which the fitted curve crosses 50%. The Emax, or maximum effect of each compound, represents the lowest % viability achieved following compound treatment.

[1] = A375.10 cells, BRAF V600E, 2 hours, inflection point, read-out: HiBiT-Degradation A375.10 BRAF 2 hours IP
[2] = A375.10 cells, BRAF V600E, 2 hours, read-out: HiBiT-Degradation A375.10 BRAF 2 hours DC50
[3] = A375.10 cells, BRAF V600E, 2 hours, residual protein remaining

Structure (SMILES)	DC50 (BRAF V600E; [1]) [µM]	DC50 (BRAF V600E; [2]) [µM]	Emax (BRAF V600E; [3]) [%]	GI50 (A375-NRAS^Q61K cells; Homo sapiens, 96 h) [µM]	Emax (A375-NRAS^Q61K cells; Homo sapiens, 96 h) [%]	HiBiT-Degradation A375.10 BRAF 2 hours Emax (BRAF V600E; [3])	HiBiT-Degradation A375.10 BRAF 24 hours Emax (BRAF V600E; A375.10 cells, HiBiT, BRAF V600E, 24 hours)	DC50 (BRAF V600E; A375.10 cells, HiBiT, BRAF V600E, 24 hours, read-out: HiBiT-Degradation A375.10 BRAF 24 hours DC50) [µM]	DC50 (BRAF V600E; A375.10 cells, HiBiT, BRAF V600E, 24 hours, read-out: HiBiT-Degradation A375.10 BRAF 24 hours IP) [µM]	GI50 (A375-NRAS^Q61K cells) [µM]	CTGlo A375.11 96 hours Emax (A375-NRAS^Q61K cells)	HiBiT-Degradation A375.10 BRAF 2 hours Emax (BRAF V600E)
CCN(C)S(=O)(=O)Nc1ccc(F)c(Oc2ccc3ncn([C@H]4COC5(CCN(CC6CCN(c7cc8c(cc7F)c(N7CCC(=O)NC7=O)nn8C)CC6)CC5)C4)c(=O)c3c2)c1C#N [Compound 251, (3R)-3-[6-[2-cyano-3-[[ethyl(methyl)sulfamoyl]amino]-6-fluoro-phenoxy]-4-oxo-quinazolin-3-yl]-8-[[1-[3-(2,4-dioxohexahydropyrimidin-1-yl)-5-fluoro-1-methyl-indazol-6-yl]-4-piperidyl]methyl]-1-oxa-8-azaspiro[4.5]decane]	< 1	< 1	50 to 90	1 to 10	50 to 90							
CCN(C)S(=O)(=O)Nc1ccc(F)c(Oc2ccc3ncn(C4CC5(CCN(C6COC7(CCN(c8cc9c(cc8F)c(N8CCC(=O)NC8=O)nn9C)CC7)C6)CC5)C4)c(=O)c3c2)c1C#N (centres unmarked) [Compound 216]	< 1	< 1	< 50	< 1	50 to 90							
CCN(C)S(=O)(=O)Nc1ccc(F)c(Oc2ccc3ncn(C4CC5(C4)CN(C4CCC(c6cc7c(cc6F)c(N6CCC(=O)NC6=O)nn7C)CC4F)C5)c(=O)c3c2)c1C#N (single isomer, unassigned) [Compound 300]	< 1	< 1				*** (<=50%)	*** (<=50%)	< 1	< 1	< 1	** (<90% and >50%)	
CC(C)S(=O)(=O)Nc1ccc(F)c(Oc2ccc3ncc(C4CC5(CCN(C6CCC(c7cc8c(cc7F)c(N7CCC(=O)NC7=O)nn8C)CC6)CC5)C4)nc3c2)c1C#N (single isomer, unassigned) [Compound 249, N-[2-cyano-3-[3-[7-[4-[3-(2,4-dioxohexahydropyrimidin-1-yl)-5-fluoro-1-methyl-indazol-6-yl]cyclohexyl]-7-azaspiro[3.5]nonan-2-yl]quinoxalin-6-yl]oxy-4-fluoro-phenyl]propane-2-sulfonamide]	< 1	< 1				*** (<=50%)				< 1	** (<90% and >50%)	
CCN(C)S(=O)(=O)Nc1ccc(F)c(Oc2ccc3ncn([C@@H]4COC5(C4)CN(C4CCC(c6cc7c(cc6F)c(N6CCC(=O)NC6=O)nn7C)CC4)C5)c(=O)c3c2)c1C#N (single isomer, unassigned) [Compound 237]	< 1	< 1	< 50		50 to 90					> 10		
CCN(C)S(=O)(=O)Nc1ccc(F)c(Oc2ccc3ncn(C4CC5(CCN(C6CC7(C6)CN(c6ccc(NC8CCC(=O)NC8=O)cc6F)C7)CC5)C4)c(=O)c3c2)c1F (centres unmarked) [Compound 188, 3-[7-[2-[4-[(2,6-dioxo-3-piperidyl)amino]-2-fluoro-phenyl]-2-azaspiro[3.3]heptan-6-yl]-7-azaspiro[3.5]nonan-2-yl]-6-[3-[[ethyl(methyl)sulfamoyl]amino]-2,6-difluoro-phenoxy]-4-oxo-quinazoline]	< 1	< 1	50 to 90	> 10	50 to 90							
CCN(C)S(=O)(=O)Nc1ccc(F)c(Oc2ccc3ncn(C4CC5(CCN(C6CCC(c7cc8c(cc7F)c(N7CCC(=O)NC7=O)nn8C)CC6)CC5)C4)c(=O)c3c2)c1F (single isomer, unassigned) [Compound 179, 3-[7-[4-[3-(2,4-dioxohexahydropyrimidin-1-yl)-5-fluoro-1-methyl-indazol-6-yl]cyclohexyl]-7-azaspiro[3.5]nonan-2-yl]-6-[3-[[ethyl(methyl)sulfamoyl]amino]-2,6-difluoro-phenoxy]-4-oxo-quinazoline]	< 1	< 1								1 to 10	** (<90% and >50%)	** (<90% and >50%)
